According to US10131656B2, “Organic thin film transistor, method of manufacturing organic thin film transistor, organic thin film transistor material, organic thin film transistor composition, organic semiconductor film, and compound” (FUJIFILM Corporation, priority 2015, dated 2018):

Test: Evaluation of solubility to organic solvent (saturated solubility at room temperature)
Format: physicochemical
Settings: room temperature (25° C.); for Solubility to organic solvent Solubility (4): saturated solubility in N,N-dimethylformamide; for Solubility to organic solvent Solubility (2): saturated solubility in chloroform; for Solubility to organic solvent Solubility (3): saturated solubility in tetrahydrofuran; for Solubility to organic solvent Solubility (1): saturated solubility in toluene
Description: 2 mg of each example compound and comparative compound obtained above were weighed, and the saturated solubility (mass %) at room temperature (25° C.) was calculated from the volume and the specific gravity of toluene, chloroform, tetrahydrofuran, and N,N-dimethylformamide. Those having 2 mass % or greater were as set as “A”, those having 1 mass % or greater and less than 2 mass % were set as “B”, those having 0.1 mass % or greater and less than 1 mass % were set as “C”, and those having less than 0.1 mass % were set as “D”. Saturated solubility (hereinafter also referred to as solubility) of each compound in toluene, chloroform, tetrahydrofuran, and N,N-dimethylformamide was presented as Solubility (1) to (4), in the evaluation results of a first table.

Structure (SMILES): CCCCCCCCCCC(CCCCCCCC)CCn1c(=O)c2ccc3c4ccc5c(=O)n(CCC(CCCCCCCC)CCCCCCCCCC)c(=O)c6cc7sc8cc(c1=O)c2c3c8c7c4c56 (centres unmarked) [Comparative Compound 1]
- Solubility to organic solvent Solubility (4): B (those having 1 mass % or greater and less than 2 mass % were set as “B”)
- Solubility to organic solvent Solubility (2): A (Those having 2 mass % or greater were as set as “A”)
- Solubility to organic solvent Solubility (3): A (Those having 2 mass % or greater were as set as “A”)
- Solubility to organic solvent Solubility (1): B (those having 1 mass % or greater and less than 2 mass % were set as “B”)

Structure (SMILES): S=c1c2ccc3c4ccc5c(=S)n(C6CCCCC6)c(=S)c6cc7sc8cc(c(=S)n1C1CCCCC1)c2c3c8c7c4c56 [Example Compound 3]
- Solubility to organic solvent Solubility (4): B (those having 1 mass % or greater and less than 2 mass % were set as “B”)
- Solubility to organic solvent Solubility (2): B (those having 1 mass % or greater and less than 2 mass % were set as “B”)
- Solubility to organic solvent Solubility (3): B (those having 1 mass % or greater and less than 2 mass % were set as “B”)
- Solubility to organic solvent Solubility (1): B (those having 1 mass % or greater and less than 2 mass % were set as “B”)
